In PubChem BioAssay AID248 (DTP/NCI, 2004):
Values joined by “and” are separate entries in the source; they are usually repeats but may differ in a detail not shown here. Equal entries are not always repeated. Inconclusive results and toxic doses are left out.

System: L1210 leukemia ip in BDF1 mice, survival T/C
Assay: NCI In Vivo Anticancer Drug Screen. Data for tumor model L1210 Leukemia (intraperitoneal) in B6D2F1 (BDF1) mice
Conditions: endpoint: mean survival time, higher = longer survival
Procedure, shortened: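 Each compound was tested against a transplantable tumor grown in mice. The endpoint was survival, with treated animals benchmarked against vehicle controls as a simple ratio.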

[1] = dose: 100.0 mg/kg/injection, schedule: Q04DX003 (ip), vehicle: saline
[2] = dose: 12.5 mg/kg/injection, schedule: Q04DX003 (ip), vehicle: saline
[3] = dose: 25.0 mg/kg/injection, schedule: Q04DX003 (ip), vehicle: saline
[4] = dose: 50.0 mg/kg/injection, schedule: Q04DX003 (ip), vehicle: saline
[5] = dose: 100.0 mg/kg/injection, schedule: Q04DX003 (ip), vehicle: Klucel (hydroxypropylcellulose) (HPC)
[6] = dose: 200.0 mg/kg/injection, schedule: Q04DX003 (ip), vehicle: Klucel (hydroxypropylcellulose) (HPC)
[7] = dose: 100.0 mg/kg/injection, schedule: Q01DX009 (ip), vehicle: Klucel (hydroxypropylcellulose) (HPC)
[8] = dose: 200.0 mg/kg/injection, schedule: Q01DX009 (ip), vehicle: Klucel (hydroxypropylcellulose) (HPC)
[9] = dose: 400.0 mg/kg/injection, schedule: Q01DX009 (ip), vehicle: Klucel (hydroxypropylcellulose) (HPC)
[10] = dose: 400.0 mg/kg/injection, schedule: Q04DX003 (ip), vehicle: Klucel (hydroxypropylcellulose) (HPC)
[11] = dose: 100.0 mg/kg/injection, schedule: Q01DX001 (ip), vehicle: saline
[12] = dose: 200.0 mg/kg/injection, schedule: Q01DX001 (ip), vehicle: saline
[13] = dose: 400.0 mg/kg/injection, schedule: Q01DX001 (ip), vehicle: saline

Compound: CN(N=O)C(=O)Nc1ccc(C(=O)O)cc1
- T/C (dose: 12.0 mg/kg/injection, schedule: Q01DX Z (ip), vehicle: carboxymethylcellulose (CMC)): 183 % of control
- T/C (dose: 17.6 mg/kg/injection, schedule: Q01DX Z (ip), vehicle: carboxymethylcellulose (CMC)): 190 % of control
- T/C (dose: 26.4 mg/kg/injection, schedule: Q01DX Z (ip), vehicle: carboxymethylcellulose (CMC)): 209 % of control
- T/C (dose: 40.0 mg/kg/injection, schedule: Q01DX Z (ip), vehicle: carboxymethylcellulose (CMC)): 188 % of control and 218 % of control
- T/C (dose: 60.0 mg/kg/injection, schedule: Q01DX Z (ip), vehicle: carboxymethylcellulose (CMC)): 118 % of control and 87 % of control
- T/C (dose: 80.0 mg/kg/injection, schedule: Q01DX Z (ip), vehicle: carboxymethylcellulose (CMC)): 98 % of control

Compound: C/C(=N/S(=O)(=O)c1ccc(C)cc1)OCCN(C)C
- T/C (dose: 3.0 mg/kg/injection, schedule: Q01DX009 (ip), vehicle: saline with Tween-80): 100 % of control
- T/C (dose: 3.0 mg/kg/injection, schedule: Q04DX003 (ip), vehicle: saline with Tween-80): 98 % of control
- T/C (dose: 6.0 mg/kg/injection, schedule: Q01DX009 (ip), vehicle: saline with Tween-80): 95 % of control
- T/C (dose: 6.0 mg/kg/injection, schedule: Q04DX003 (ip), vehicle: saline with Tween-80): 101 % of control
- T/C (dose: 12.5 mg/kg/injection, schedule: Q04DX003 (ip), vehicle: saline with Tween-80): 90 % of control

Compound: CC1(C)Cc2nc3ccccc3nc2-c2ccccc21
- T/C [1]: 95 % of control
- T/C (dose: 200.0 mg/kg/injection, schedule: Q04DX003 (ip), vehicle: saline): 90 % of control
- T/C (dose: 400.0 mg/kg/injection, schedule: Q04DX003 (ip), vehicle: saline): 100 % of control

Compound: CCCCC(CC)C(=O)[O][Ge]([CH2]CCC)([CH2]CCC)[O]C(=O)C(CC)CCCC (stereo unspecified)
- T/C (dose: 100.0 mg/kg/injection, schedule: Q01DX001 (ip), vehicle: saline with Tween-80): 101 % of control
- T/C (dose: 200.0 mg/kg/injection, schedule: Q01DX001 (ip), vehicle: saline with Tween-80): 100 % of control
- T/C (dose: 400.0 mg/kg/injection, schedule: Q01DX001 (ip), vehicle: saline with Tween-80): 100 % of control

Compound: NC(Cc1cc(I)c(Oc2ccc(O)c(I)c2)c(I)c1)C(=O)O (stereo unspecified)
- T/C (dose: 25.0 micrograms/kg/injection, schedule: Q01DX Z (ip), vehicle: saline): 86 % of control
- T/C (dose: 50.0 micrograms/kg/injection, schedule: Q01DX Z (ip), vehicle: saline): 92 % of control
- T/C (dose: 100.0 micrograms/kg/injection, schedule: Q01DX Z (ip), vehicle: saline): 101 % of control
- T/C (dose: 200.0 micrograms/kg/injection, schedule: Q01DX Z (ip), vehicle: saline): 89 % of control

Compound: CCCCNc1cc(N)[nH]c(=O)n1
- T/C (dose: 75.0 mg/kg/injection, schedule: Q01DX001 (ip), vehicle: saline with Tween-80): 93 % of control
- T/C (dose: 150.0 mg/kg/injection, schedule: Q01DX001 (ip), vehicle: saline with Tween-80): 90 % of control
- T/C (dose: 300.0 mg/kg/injection, schedule: Q01DX001 (ip), vehicle: saline with Tween-80): 90 % of control

Compound: C1=C(c2ccccc2)[P+](c2ccccc2)(c2ccccc2)C=C(c2ccccc2)[P+]1(c1ccccc1)c1ccccc1
- T/C (dose: 12.5 mg/kg/injection, schedule: Q01DX009 (ip), vehicle: saline): 108 % of control
- T/C [2]: 106 % of control
- T/C (dose: 25.0 mg/kg/injection, schedule: Q01DX009 (ip), vehicle: saline): 109 % of control
- T/C [3]: 109 % of control
- T/C [4]: 102 % of control

Compound: Cc1cccc(Cl)c1NC(=O)Cn1cccc1
- T/C (dose: 25.0 mg/kg/injection, schedule: Q01DX009 (ip), vehicle: Klucel (hydroxypropylcellulose) (HPC)): 95 % of control
- T/C (dose: 50.0 mg/kg/injection, schedule: Q01DX009 (ip), vehicle: Klucel (hydroxypropylcellulose) (HPC)): 95 % of control
- T/C (dose: 75.0 mg/kg/injection, schedule: Q01DX009 (ip), vehicle: Klucel (hydroxypropylcellulose) (HPC)): 94 % of control
- T/C [5]: 100 % of control
- T/C [6]: 93 % of control

Compound: COc1ccc(C(CC(=O)c2ccccc2)CC(=O)c2ccccc2)cc1
- T/C (dose: 400.0 mg/kg/injection, schedule: Q04DX003 (ip), vehicle: saline with Tween-80): 87 % of control

Compound: O=C(c1ccc([N+](=O)[O-])cc1)c1ccccn1
- T/C [7]: 103 % of control
- T/C [5]: 101 % of control
- T/C [8]: 102 % of control
- T/C [6]: 93 % of control
- T/C [9]: 115 % of control
- T/C [10]: 92 % of control

Compound: Cc1ccc(N=Nc2ccc(C)cc2NC(=O)Nc2cc([N+](=O)[O-])ccc2F)cc1
- T/C (dose: 100.0 mg/kg/injection, schedule: Q04DX002 (ip), vehicle: saline): 93 % of control
- T/C (dose: 200.0 mg/kg/injection, schedule: Q04DX002 (ip), vehicle: saline): 108 % of control
- T/C (dose: 400.0 mg/kg/injection, schedule: Q04DX002 (ip), vehicle: saline): 90 % of control

Compound: O=C1CCCc2[nH]c(=O)ccc21
- T/C [11]: 101 % of control
- T/C [12]: 94 % of control
- T/C [13]: 96 % of control

Compound: O=C(O)C(O)C(O)C(=O)O.[Cu+2] (stereo unspecified)
- T/C (dose: 5.0 mg/kg/injection, schedule: Q01DX001 (ip), vehicle: saline): 95 % of control
- T/C (dose: 10.0 mg/kg/injection, schedule: Q01DX001 (ip), vehicle: saline): 89 % of control
- T/C (dose: 20.0 mg/kg/injection, schedule: Q01DX001 (ip), vehicle: saline): 93 % of control
- T/C (dose: 40.0 mg/kg/injection, schedule: Q01DX001 (ip), vehicle: saline): 101 % of control

Compound: OCCN1CCN(CCCN2c3ccccc3CCc3ccccc32)CC1
- T/C [2]: 98 % of control
- T/C (dose: 15.62 mg/kg/injection, schedule: Q04DX003 (ip), vehicle: saline): 100 % of control
- T/C [3]: 106 % of control
- T/C (dose: 31.25 mg/kg/injection, schedule: Q04DX003 (ip), vehicle: saline): 103 % of control
- T/C [4]: 104 % of control
- T/C (dose: 62.5 mg/kg/injection, schedule: Q04DX003 (ip), vehicle: saline): 105 % of control
- T/C [1]: 104 % of control
- T/C (dose: 125.0 mg/kg/injection, schedule: Q04DX003 (ip), vehicle: saline): 92 % of control

Compound: [Cl][Zn][Cl].[NH-]CCN1CC1.[NH-]CCN1CC1
- T/C (dose: 10.0 mg/kg/injection, schedule: Q01DX009 (ip), vehicle: saline): 108 % of control
- T/C (dose: 20.0 mg/kg/injection, schedule: Q01DX009 (ip), vehicle: saline): 111 % of control
- T/C (dose: 20.0 mg/kg/injection, schedule: Q04DX003 (ip), vehicle: saline): 104 % of control
- T/C (dose: 40.0 mg/kg/injection, schedule: Q01DX009 (ip), vehicle: saline): 93 % of control
- T/C (dose: 40.0 mg/kg/injection, schedule: Q04DX003 (ip), vehicle: saline): 102 % of control

Compound: CNC(=O)Nc1c(C)cccc1C
- T/C [7]: 93 % of control
- T/C [5]: 106 % of control
- T/C [8]: 93 % of control
- T/C [6]: 101 % of control
- T/C [9]: 97 % of control
- T/C [10]: 98 % of control

Compound: CC(C)(C)c1cc(OCC2CO2)c(C(C)(C)C)cc1OCC1CO1 (stereo unspecified)
- T/C [11]: 101 % of control
- T/C [12]: 101 % of control
- T/C [13]: 92 % of control

Compound: CCCCCCOC(=O)C[n+]1cccc(C(N)=O)c1
- T/C [1]: 95 % of control

Compound: O=C1C(c2ccccc2)=C2C(=C1c1ccccc1)c1cccc3cccc2c13
- T/C (dose: 50.0 mg/kg/injection, schedule: Q01DX001 (ip), vehicle: saline): 97 % of control
- T/C [11]: 97 % of control
- T/C (dose: 100.0 mg/kg/injection, schedule: Q01DX009 (ip), vehicle: saline with Tween-80): 92 % of control
- T/C [12]: 100 % of control
- T/C (dose: 200.0 mg/kg/injection, schedule: Q01DX009 (ip), vehicle: saline with Tween-80): 103 % of control
- T/C [13]: 120 % of control
- T/C (dose: 400.0 mg/kg/injection, schedule: Q01DX009 (ip), vehicle: saline with Tween-80): 97 % of control
